The assay relates to HIV-1. Put plainly: HIV-1 infection assay (antiviral potency, MT4-GFP reporter cells). It counts as cell-based. The method, then: HIV-1 replication was monitored using MT4-gag-GFP clone D3 (hereafter designate MT4-GFP), which are MT-4 cells modified to harbor a GFP reporter gene, the expression of which is dependent on the HIV-1 expressed proteins tat and rev. Productive infection of an MT4-GFP cell with HIV-1 results in GFP expression approximately 24 h post-infection.
MT4-GFP cells were maintained at 37° C./5% CO2/90% relative humidity in RPMI 1640 supplemented with 10% fetal bovine serum, 100 U/ml penicillin/streptomycin, and 400 μg/ml G418 to maintain the reporter gene. For infections, MT4-GFP cells were placed in the same medium lacking G418 and infected overnight with H9IIIB or NL4-3 virus at an approximate multiplicity of infection of 0.01 in the same incubation conditions. Cells were then washed and resuspended in either RPMI 1640 containing no serum at 1.6×10^5 cells/mL (serum free conditions), 10% normal human serum at 1.6×10^5 cells/mL (10% NHS conditions) or in 100% normal human serum at 2×10^5 cells/mL (100% NHS conditions). Compound plates were prepared by dispensing compounds taken up in DMSO into wells of 384 well poly D lysine-coated plates (0.2 μl/well) using an ECHO acoustic dispenser. Each compound was tested in a 10 point serial 3-fold dilution (typical final concentrations: 4.2 μM-0.21 nM). Controls included no inhibitor (DMSO only) and a combination of three antiviral agents (efavirenz, indinavir, and the integrase strand transfer inhibitor L-002254051 at final concentrations of 4 μM each). Cells were added (50 μL/well) to compound plates and the infected cells were maintained at 37° C./5% CO2/90% relative humidity.
Infected cells were quantified at two time points, ˜48 h and ˜72 h post-infection, by counting the number of green cells in each well using an Acumen eX3 scanner. The increase in the number of green cells over ˜24 h period gives the reproductive ratio, R0, which is typically 5-15 and has been shown experimentally to be in logarithmic phase (data not shown). Inhibition of R0 is calculated for each well, and IC50 value was determined using non-linear 4-parameter curve fitting.

The mark [1] stands for this setting: Human immunodeficiency virus 1, NL43, MT4-GFP cells infected with H9IIIB or NL4-3 virus, 100% normal human serum, inhibition of reproductive ratio R0, read-out: VIKING IP (nM) with 100% NHS.
Where [2] appears, read: Human immunodeficiency virus 1, NL43, MT4-GFP cells infected with H9IIIB or NL4-3 virus, serum free conditions (0% NHS), inhibition of reproductive ratio R0, read-out: VIKING IP (nM) with 0% NHS.
Setting [3] is: Human immunodeficiency virus 1, NL43, read-out: VIKING IP (nM) with 0% NHS.

Like-named read-outs stand apart in the source and are kept apart here.

`CC(C)OC(=O)OCOP(=O)(CCCN1C(=O)c2c(O)c(=O)c(C(=O)NCc3ccc(F)cc3F)cn2N(CCP(=O)(OCOC(=O)OC(C)C)OCOC(=O)OC(C)C)C12CCOC2)OCOC(=O)OC(C)C` (racemic) [Compound 49]: the IC50 under setting [1] was determined as 8.8 nM and the IC50 under setting [2] was 0.3 nM.

With `CCCOP(=O)(CCN1n2cc(C(=O)NCc3ccc(F)cc3F)c(=O)c(O)c2C(=O)N(C)[C@]12CCOC2)OCC` (single isomer, unassigned) [Compound 6], the IC50 under setting [1] is 45.9 nM and the IC50 under setting [2] was determined as 2 nM. In the case of `CN1C(=O)c2c(O)c(=O)c(C(=O)NCc3ccc(F)cc3F)cn2N(CCP(=O)(O)O)[C@]12CCOC2` (single isomer, unassigned) [Compound 9], the IC50 by setting is: under setting [1], 961 nM; under setting [2], 23.3 nM. On to `CN1C(=O)c2c(O)c(=O)c(C(=O)NCc3ccc(F)cc3F)cn2N(CCP(=O)(O)O)[C@@]12CCOC2` (single isomer, unassigned) [Compound 10], for which the IC50 was 449 nM under setting [1] and 14.4 nM under setting [2]. For `CCOP(=O)(CCN1C(=O)c2c(O)c(=O)c(C(=O)NCc3ccc(F)cc3F)cn2N(C)C12CCOC2)OCC` (single isomer, unassigned) [Compound 45] the same measures were 118 nM and 2.9 nM. Consider `CN1n2cc(C(=O)NCc3ccc(F)cc3F)c(=O)c(O)c2C(=O)N(CCP(=O)(O)O)C12CCOC2` (single isomer, unassigned) [Compound 46], for which the IC50 was determined as 775 nM under setting [1] and 92.1 nM under setting [2]. In the case of `CC(C)OC(=O)OCOP(=O)(CCN1C(=O)c2c(O)c(=O)c(C(=O)NCc3ccc(F)cc3F)cn2N(C)C12CCOC2)OCOC(=O)OC(C)C` (single isomer, unassigned) [Compound 47], the IC50 is, setting by setting: under setting [1], 106 nM; under setting [2], 2.9 nM.

On to `CC(C)OC(=O)[C@H](C)NP(=O)(CCN1C(=O)c2c(O)c(=O)c(C(=O)NCc3ccc(F)cc3F)cn2N(C)C12CCOC2)Oc1ccccc1` (single isomer, unassigned) [Compound 48], for which, under setting [3], the IC50 was 23.8 nM.

In the case of `CC(C)OC(=O)OCOP(=O)(CCN1n2cc(C(=O)NCc3ccc(F)cc3F)c(=O)c(O)c2C(=O)N(C)[C@@]12CCOC2)OCOC(=O)OC(C)C` [Compound 11], the IC50 reads like this: under setting [1], 1.5 nM; under setting [2], 0.05 nM. For `CC(C)OC(=O)OCOP(=O)(O)CCN1n2cc(C(=O)NCc3ccc(F)cc3F)c(=O)c(O)c2C(=O)N(C)[C@@]12CCOC2` [Compound 12] the same measures were 156 nM and 0.8 nM.

On to `CC(C)OC(=O)OCOP(=O)(CCN1n2cc(C(=O)NCc3ccc(F)cc3F)c(=O)c(O)c2C(=O)N(C)[C@]12CCOC2)OCOC(=O)OC(C)C` [Compound 13], for which the IC50 under setting [1] came to 1.8 nM and the IC50 under setting [2] was 0.04 nM. `CC(C)OC(=O)OCOP(=O)(O)CCN1n2cc(C(=O)NCc3ccc(F)cc3F)c(=O)c(O)c2C(=O)N(C)[C@]12CCOC2` [Compound 14]: the IC50 under setting [1] was determined as 89 nM and the IC50 under setting [2] was 1.6 nM. For `CC(C)OC(=O)[C@H](C)NP(=O)(CCN1n2cc(C(=O)NCc3ccc(F)cc3F)c(=O)c(O)c2C(=O)N(C)[C@@]12CCOC2)Oc1ccccc1` (some centres unmarked) [Compound 15], the IC50 under setting [3] stood at 3.9 nM. For `CC(C)OC(=O)[C@H](C)NP(=O)(CCN1n2cc(C(=O)NCc3ccc(F)cc3F)c(=O)c(O)c2C(=O)N(C)[C@]12CCOC2)Oc1ccccc1` (some centres unmarked) [Compound 16], the IC50 under setting [3] came out at 3.7 nM. As to `CCOP(=O)(CCN1C(=O)c2c(O)c(=O)c(C(=O)NCc3ccc(F)cc3F)cn2N(C)C12CCOC2)OCC` (centres unmarked) [Compound 40], the IC50 runs as follows: under setting [1], 92.6 nM; under setting [2], 3.6 nM. For `CN1n2cc(C(=O)NCc3ccc(F)cc3F)c(=O)c(O)c2C(=O)N(CCP(=O)(O)O)C12CCOC2` (centres unmarked) [Compound 42], the IC50 reads like this: under setting [1], 447 nM; under setting [2], 54.8 nM. In the case of `CC(C)OC(=O)OCOP(=O)(CCN1C(=O)c2c(O)c(=O)c(C(=O)NCc3ccc(F)cc3F)cn2N(C)C12CCOC2)OCOC(=O)OC(C)C` (centres unmarked) [Compound 43], the IC50 was 43.4 nM under setting [1] and 1.2 nM under setting [2]. As to `CC(C)OC(=O)[C@H](C)NP(=O)(CCN1C(=O)c2c(O)c(=O)c(C(=O)NCc3ccc(F)cc3F)cn2N(C)C12CCOC2)Oc1ccccc1` (some centres unmarked) [Compound 44], the IC50 under setting [3] turned out to be 13.4 nM.

For the origin of these results see US10624912B2, “Spirocyclic Pyridotriazine Derivatives useful as HIV integrase inhibitors” (priority 2015, dated 2020).
